From patent US20050191668A1, “Methods of using peroxisome proliferator-activated receptor alpha target genes” (priority 2004, published 2005)

Tests used:
Type in all cases: cell-based, human
Pa21 gene [1] = assay: Pa21 gene expression by real-time RT-PCR in HuH7 hepatocytes
Source text: (§1) Human hepatocyte HuH7 cells, which are epithelial cells of liver, were obtained from Japan Health Science Research Resources Bank (Osaka, Japan). Human primary adipocytes, which are connective tissue cells specialized for the synthesis and storage of fat, were obtained from Zen-Bio, Inc (Research Triangle Park, NC). Human primary skeletal muscle cells (SKMC) were obtained from Cambrex Bio Science (Walkersville, Md.). PPARα agonists, Wy14643 (Agatha, et al, 2000, Archives of Biochemistry and Biophysics 380:353-359) and fenofibrates were obtained from Cayman Chemical (Ann Arbor, Mich.) and Sigma (St Louis, Mo.), respectively.
(§2) Human HuH7 cells were cultured in Dulbecco's Modified Eagle Medium with 10% Fetal Bovine Serum (Gibco, N.Y.). Cells were treated with charcoal-stripped, delipidated calf serum (5%) (Sigma, St Louis, Mo.) for about 4-18 hours. Then, cells were treated with different concentrations of PPARα agonist (Wy14643 or fenofibrates) for about 20-24 h. Human SKM cells were cultured in Skeletal Muscle Growth Medium (Cambrex Bio Science, Walkersville, Md.), and were treated with different concentrations of PPARα agonist (Wy14643 or fenofibrates) for about 18-20 hours. Human primary adipocytes were cultured in Preadipocyte Medium, (Cat #PM—1, Zen-Bio, Inc., Research Triangle Park, NC), and were treated with different concentrations of PPARα agonist (Wy14643 or fenofibrates) for about 18-20 hours.
(§3) Total RNA was purified from cultured cells following the protocol provided by the manufacturer (Trizon method, Invitrogen Inc. Ca). The polymerase chain reaction (PCR) primers and fluorescent probes (TagMan probes) for Pa9, Pa13, and Pa21 were designed from GenBank sequences of accession numbers W30988, AB000584, and NM_080725, respectively. The primers and probes were designed using the software PrimerDesign (Applied Biosystems, Foster City, Calif.). The PCR primers for Pa9 were SEQ ID NO: 7, (5-[…]) and SEQ ID NO: 8 (5-[…]). […] The PCR primers for Pa13 were SEQ ID NO: 10 (5-[…], T) and SEQ ID NO: 11 (5-[…] T). […] The PCR primers for Pa21 were SEQ ID NO: 13 (5-[…] C) and SEQ ID NO: 14 (5-[…]). […] All primers and probes were synthesized by Keystone Labs (Camarillo, Calif.).
(§4) Reverse transcription (RT) and PCR were conducted in one step using “One-Step RT-PCR Master Mix Reagent” kit (Applied Biosystems, Foster City, Calif.) in ABI PRISM 7700 Sequence Detection System (Applied Biosystems). Each reaction was performed in a total volume of 25 μl containing 40 ng of total RNA. The reaction condition was: 48° C. for 30 minutes, 60° C. for 30 minutes, 94° C. for 5 minutes, followed by 40 cycles of 94° C. for 20 seconds and 60° C. for 1 minute. The primers for 18S ribosomal RNA were developed and provided by Applied Biosystems. The measurement of human 18S ribosomal RNA was used as an internal control for normalization of measuring and loading errors. PCR data were collected by Ct value (the cycle number at which logarithmic PCR plots cross a calculated threshold line) according to the manufacturer's guidelines and the value was used to determine the Δ^Ct (Ct of the target gene minus the Ct of 18S ribosomal RNA controls). Relative mRNA level was calculated using the equation 2^−ΔΔCt as described previously (Heid et al., 1996, Genome Res. 6:986-994).

Pa13 gene [2] = assay: Pa13 gene expression by real-time RT-PCR in HuH7 hepatocytes
Source text: as §1, §2, §3, §4

Pa9 gene [3] = assay: Pa9 gene expression by real-time RT-PCR in HuH7 hepatocytes; conditions: HuH7 hepatocytes
Source text: as §1, §2, §3, §4

Pa9 gene [4] = assay: Pa9 gene expression by real-time RT-PCR in primary skeletal muscle cells; conditions: about 18-20 hours, vehicle control = 100
Source text: as §1, §2, §3, §4
The nucleotide sequence of the human FDRG gene (AX278133) is provided in SEQ ID NO: 1 and the sequence alignment between W30988 and FDRG gene is shown in FIG. 1. […] Quantitative real-time RT-PCR was performed to test whether gene expression of the human FDRG gene is regulated by PPARα.

Pa21 gene [5] = assay: Pa21 gene expression by real-time RT-PCR in primary skeletal muscle cells; conditions: about 18-20 hours, vehicle control = 100
Source text: as §1, §2, §3, §4

Pa13 gene [6] = assay: Pa13 gene expression by real-time RT-PCR in primary skeletal muscle cells; conditions: about 18-20 hours, vehicle control = 100
Source text: as §1, §2, §3, §4

Pa9 gene [7] = assay: Pa9 gene expression by real-time RT-PCR in primary adipocytes; conditions: 50 uM, about 18-20 hours, vehicle control = 100
Source text: as §1, §2
Total RNA was purified from cultured cells following the protocol provided by the manufacturer (Trizon method, Invitrogen Inc. Ca). The polymerase chain reaction (PCR) primers and fluorescent probes (TagMan probes) for Pa9, Pa13, and Pa21 were designed from GenBank sequences of accession numbers W30988, AB000584, and NM_080725, respectively. The primers and probes were designed using the software PrimerDesign (Applied Biosystems, Foster City, Calif.). The PCR primers for Pa9 were SEQ ID NO: 7, (5-[…]) and SEQ ID NO: 8 (5-[…]). […] The PCR primers for Pa13 were SEQ ID NO: 10 (5-[…], T) and SEQ ID NO: 11 (5-[…] T). […] The PCR primers for Pa21 were SEQ ID NO: 13 (5-[…] C) and SEQ ID NO: 14 (5-[…]). […]
Reverse transcription (RT) and PCR were conducted in one step using “One-Step RT-PCR Master Mix Reagent” kit (Applied Biosystems, Foster City, Calif.) in ABI PRISM 7700 Sequence Detection System (Applied Biosystems). […] PCR data were collected by Ct value (the cycle number at which logarithmic PCR plots cross a calculated threshold line) according to the manufacturer's guidelines and the value was used to determine the Δ^Ct (Ct of the target gene minus the Ct of 18S ribosomal RNA controls). Relative mRNA level was calculated using the equation 2^−ΔΔCt as described previously (Heid et al., 1996, Genome Res. 6:986-994).

Pa21 gene [8] = assay: Pa21 gene expression by real-time RT-PCR in primary adipocytes; conditions: about 18-20 hours, vehicle control = 100
Source text: as §1, §2, §3, §4

Pa13 gene [9] = assay: Pa13 gene expression by real-time RT-PCR in primary adipocytes; conditions: about 18-20 hours, vehicle control = 100
Source text: as §1, §2, §3, §4

[10] = 1 μM, vehicle control = 100 (Table 4)
[11] = 3 uM, about 20-24 h, vehicle control = 100
[12] = 10 uM, about 20-24 h, vehicle control = 100
[13] = 30 uM, about 20-24 h, vehicle control = 100
[14] = 100 uM, about 20-24 h, vehicle control = 100
[15] = 300 uM, about 20-24 h, vehicle control = 100

`CN(CCOc1ccc(CC2SC(=O)NC2=O)cc1)c1ccccn1` (centres unmarked) [Rosiglitazone] was tested, and the “Pa21 (H4960) gene expression, Percentage ± SE (%)” value (shortened to “Pa21 … Percentage ± SE (%)”) (Pa21 gene [1]; [10]) was 97 ± 17.5%, the “Pa13 (N26311) gene expression, Percentage ± SE (%)” value (from here on “Pa13 … Percentage ± SE (%)”) (Pa13 gene [2]; [10]) was 217 ± 20.2% and the “Pa9 (W38098) gene expression, Percentage ± SE (%)” value (“Pa9 … Percentage ± SE (%)” below) (Pa9 gene [3]; [10]) was 147 ± 31.2%.

`CC(C)OC(=O)C(C)(C)Oc1ccc(C(=O)c2ccc(Cl)cc2)cc1` [Fenofibrate] was tested, and the “Pa9 … Percentage ± SE (%)” value (Pa9 gene [4]; 3 uM) was 120 ± 34.2%, the “Pa9 … Percentage ± SE (%)” value (Pa9 gene [4]; 10 uM) was 230 ± 15.7% and the “Pa9 … Percentage ± SE (%)” value (Pa9 gene [4]; 30 uM) was 340 ± 7.4%. For the same compound, the “Pa9 … Percentage ± SE (%)” value (Pa9 gene [4]; 100 uM) was 350 ± 19.7%, the “Pa9 … Percentage ± SE (%)” value (Pa9 gene [4]; 300 uM) was 550 ± 14% and the “Pa21 … Percentage ± SE (%)” value (Pa21 gene [1]; [11]) was 63.6 ± 17.3%. The “Pa21 … Percentage ± SE (%)” value (Pa21 gene [1]; [12]) was 227.3 ± 54%, the “Pa21 … Percentage ± SE (%)” value (Pa21 gene [1]; [13]) was 209.1 ± 20.4% and the “Pa21 … Percentage ± SE (%)” value (Pa21 gene [1]; [14]) was 300 ± 20.6%. The “Pa21 … Percentage ± SE (%)” value (Pa21 gene [1]; [15]) was 336.4 ± 24.3%, the “Pa21 … Percentage ± SE (%)” value (Pa21 gene [5]; 3 uM) was 110 ± 14.5% and the “Pa21 … Percentage ± SE (%)” value (Pa21 gene [5]; 10 uM) was 290 ± 1.4%. For the same compound, the “Pa21 … Percentage ± SE (%)” value (Pa21 gene [5]; 30 uM) was 280 ± 52.5%, the “Pa13 … Percentage ± SE (%)” value (Pa13 gene [2]; [11]) was 180 ± 43.9% and the “Pa13 … Percentage ± SE (%)” value (Pa13 gene [2]; [12]) was 160 ± 55%. The “Pa13 … Percentage ± SE (%)” value (Pa13 gene [2]; [13]) was 250 ± 4.8%, the “Pa13 … Percentage ± SE (%)” value (Pa13 gene [2]; [14]) was 750 ± 10.8% and the “Pa13 … Percentage ± SE (%)” value (Pa13 gene [2]; [15]) was 710 ± 7.3%. The “Pa9 … Percentage ± SE (%)” value (Pa9 gene [3]; [11]) was 110 ± 12.7%, the “Pa9 … Percentage ± SE (%)” value (Pa9 gene [3]; [12]) was 90 ± 23% and the “Pa9 … Percentage ± SE (%)” value (Pa9 gene [3]; [13]) was 80 ± 2%. For the same compound, the “Pa9 … Percentage ± SE (%)” value (Pa9 gene [3]; [14]) was 140 ± 37.1%, the “Pa9 … Percentage ± SE (%)” value (Pa9 gene [3]; [15]) was 200 ± 11.5% and the “Pa13 … Percentage ± SE (%)” value (Pa13 gene [6]; 3 uM) was 72.7 ± 30.9%. The “Pa13 … Percentage ± SE (%)” value (Pa13 gene [6]; 10 uM) was 63.6 ± 11.8%, the “Pa13 … Percentage ± SE (%)” value (Pa13 gene [6]; 30 uM) was 181.8 ± 3% and the “Pa13 … Percentage ± SE (%)” value (Pa13 gene [6]; 100 uM) was 218.2 ± 2.9%. For the same compound, the “Pa13 … Percentage ± SE (%)” value (Pa13 gene [6]; 300 uM) was 309.1 ± 7.4%, the “Pa9 … Percentage ± SE (%)” value (Pa9 gene [7]) was 127 ± 1.5% and the “Pa21 … Percentage ± SE (%)” value (Pa21 gene [8]; 10 uM) was 63 ± 5.6%. The “Pa21 … Percentage ± SE (%)” value (Pa21 gene [8]; 50 uM) was 109 ± 4.5%, the “Pa21 … Percentage ± SE (%)” value (Pa21 gene [8]; 250 uM) was 121 ± 17.3% and the “Pa13 … Percentage ± SE (%)” value (Pa13 gene [9]; 10 uM) was 70 ± 27.1%. The “Pa13 … Percentage ± SE (%)” value (Pa13 gene [9]; 50 uM) was 45 ± 13.3% and the “Pa13 … Percentage ± SE (%)” value (Pa13 gene [9]; 250 uM) was 206 ± 34.4%.
